Experimental data published in US9028845B2, “Chimeric immunomodulatory compounds and methods of using the same-IV” (Dynavax Technologies Corporation, priority 2001, dated 2015).

Test system: human PBMCs
Assay: Human PBMC cytokine response assay (IFN-γ and IFN-α in cell-free medium by ELISA), with or without cPLGA;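 on IFN-α (pg/ml) mean: 20 µg/mL compound for 24 hours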;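 on IFN-γ (pg/ml) mean: 20 µg/mL compound for 24 hours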
Type: cell-based
Conditions: for immunomodulatory activity (IFN-γ / IFN-α secretion), in words: used alone (no cPLGA)
[1] = Table 24, mean of donors 28234-28237
[2] = mean of donors 110, 112, 119, 120, Table 14

5′-TCGTCGA-3′-(HEG)6-5′-TCGTCGA-3′ (phosphodiester linkages) [Compound C-36]
activity when formulated with cPLGA, in words: significantly more active when formulated with cPLGA
immunomodulatory activity (IFN-γ / IFN-α secretion), in words: inactive as CICs alone

5′-TCGTCGA-3′-C3-5′-TCGTCGA-3′-C3-5′-TCGTCGA-3′ [Compound C-90]
IFN-α (Table 24, donor 28234): 16 pg/mL
IFN-γ (Table 24, donor 28234): 7 pg/mL
IFN-α (Table 24, donor 28235): 46 pg/mL
IFN-γ (Table 24, donor 28235): 118 pg/mL
IFN-α (Table 24, donor 28236): 117 pg/mL
IFN-γ (Table 24, donor 28236): 497 pg/mL
IFN-α (Table 24, donor 28237): 345 pg/mL
IFN-γ (Table 24, donor 28237): 1586 pg/mL
IFN-α mean [1]: 131 pg/mL
IFN-γ mean [1]: 552 pg/mL
IFN-γ induction, in words (used alone): similar

5′-TCGTCGA-3′-C3-5′-TCGTCGA-3′-C3-5′-TCGTCGA-3′ all phosphorothioate linkages [Compound C-33]
IFN-α (Table 9, donor 28089): 56 pg/mL
IFN-γ (Table 9, donor 28089): 0 pg/mL
IFN-α (Table 9, donor 28090): 22 pg/mL
IFN-γ (Table 9, donor 28090): 0 pg/mL
IFN-α (Table 9, donor 28098): 34 pg/mL
IFN-γ (Table 9, donor 28098): 0 pg/mL
IFN-α (Table 9, donor 28099): 30 pg/mL
IFN-γ (Table 9, donor 28099): 3 pg/mL
IFN-α mean (Table 9, mean of donors): 36 pg/mL
IFN-γ mean (Table 9, mean of donors): 1 pg/mL
IFN-α (Table 24, donor 28234): 16 pg/mL
IFN-γ (Table 24, donor 28234): 23 pg/mL
IFN-α (Table 24, donor 28235): 16 pg/mL
IFN-γ (Table 24, donor 28235): 86 pg/mL
IFN-α (Table 24, donor 28236): 16 pg/mL
IFN-γ (Table 24, donor 28236): 247 pg/mL
IFN-α (Table 24, donor 28237): 91 pg/mL
IFN-γ (Table 24, donor 28237): 2076 pg/mL
IFN-α mean [1]: 35 pg/mL
IFN-γ mean [1]: 608 pg/mL

5′-TCGTCGA-3′-HEG-5′-AACGTTC-3′-HEG-5′-AGATGAT-3′ [Compound C-54]
IFN-α (Table 13, donor 28156): 8 pg/mL
IFN-γ (Table 13, donor 28156): 297 pg/mL
IFN-α (Table 13, donor 28157): 96 pg/mL
IFN-γ (Table 13, donor 28157): 378 pg/mL
IFN-α (Table 13, donor 28158): 8 pg/mL
IFN-γ (Table 13, donor 28158): 88 pg/mL
IFN-α (Table 13, donor 28159): 13 pg/mL
IFN-γ (Table 13, donor 28159): 218 pg/mL
IFN-α mean (Table 13, mean of donors): 31 pg/mL
IFN-γ mean (Table 13, mean of donors): 245 pg/mL

5′-TCGTCGA-3′-HEG-5′-AACGTTC-3′-HEG-5′-TCGTCGA-3′ [Compound C-55]
IFN-α (Table 13, donor 28156): 9 pg/mL
IFN-γ (Table 13, donor 28156): 511 pg/mL
IFN-α (Table 13, donor 28157): 5 pg/mL
IFN-γ (Table 13, donor 28157): 566 pg/mL
IFN-α (Table 13, donor 28158): 63 pg/mL
IFN-γ (Table 13, donor 28158): 55 pg/mL
IFN-α (Table 13, donor 28159): 3 pg/mL
IFN-γ (Table 13, donor 28159): 186 pg/mL
IFN-α mean (Table 13, mean of donors): 20 pg/mL
IFN-γ mean (Table 13, mean of donors): 329 pg/mL

5′-TCGTCGA-3′-HEG-5′-ACGTTCG-3′-HEG-5′-GGGGGG-3′ [Compound C-49]
IFN-α (Table 11, donor 28042): 30 pg/mL
IFN-γ (Table 11, donor 28042): 367 pg/mL
IFN-α (Table 11, donor 28043): 8 pg/mL
IFN-γ (Table 11, donor 28043): 433 pg/mL
IFN-α (Table 11, donor 28044): 100 pg/mL
IFN-γ (Table 11, donor 28044): 767 pg/mL
IFN-α (Table 11, donor 28045): 88 pg/mL
IFN-γ (Table 11, donor 28045): 353 pg/mL
IFN-α mean (Table 11, mean of donors): 57 pg/mL
IFN-γ mean (Table 11, mean of donors): 480 pg/mL

5′-TCGTCGA-3′-HEG-5′-AGATGAT-3′-HEG-5′-ACGTTCG-3′ [Compound C-56]
IFN-α (Table 13, donor 28156): 98 pg/mL
IFN-γ (Table 13, donor 28156): 1223 pg/mL
IFN-α (Table 13, donor 28157): 415 pg/mL
IFN-γ (Table 13, donor 28157): 543 pg/mL
IFN-α (Table 13, donor 28158): 57 pg/mL
IFN-γ (Table 13, donor 28158): 203 pg/mL
IFN-α (Table 13, donor 28159): 131 pg/mL
IFN-γ (Table 13, donor 28159): 563 pg/mL
IFN-α mean (Table 13, mean of donors): 175 pg/mL
IFN-γ mean (Table 13, mean of donors): 633 pg/mL
immunomodulatory activity (IFN-γ / IFN-α secretion), in words: most active CICs

5′-TCGTCGA-3′-HEG-5′-TCGTCGA-3′ [Compound C-39]
IFN-α (Table 10, donor 28042): 31 pg/mL
IFN-γ (Table 10, donor 28042): 343 pg/mL
IFN-α (Table 10, donor 28043): 187 pg/mL
IFN-γ (Table 10, donor 28043): 488 pg/mL
IFN-α (Table 10, donor 28044): 46 pg/mL
IFN-γ (Table 10, donor 28044): 281 pg/mL
IFN-α (Table 10, donor 28045): 36 pg/mL
IFN-γ (Table 10, donor 28045): 137 pg/mL
IFN-α mean (Table 10, mean of donors): 75 pg/mL
IFN-γ mean (Table 10, mean of donors): 312 pg/mL
IFN-α (donor 110, Table 14): 674 pg/mL
IFN-γ (donor 110, Table 14): 604 pg/mL
IFN-α (donor 112, Table 14): 26 pg/mL
IFN-γ (donor 112, Table 14): 116 pg/mL
IFN-α (donor 119, Table 14): 444 pg/mL
IFN-γ (donor 119, Table 14): 108 pg/mL
IFN-α (donor 120, Table 14): 250 pg/mL
IFN-γ (donor 120, Table 14): 32 pg/mL
activity when formulated with cPLGA, in words: significant activity when formulated with cPLGA
IFN-α (pg/ml) mean [2]: 349 pg/mL
IFN-γ (pg/ml) mean [2]: 215 pg/mL
immunomodulatory activity (IFN-γ / IFN-α secretion), in words: active when used alone
